Test results: ChEMBL document CHEMBL5126505, “Adenosine receptor antagonists: Recent advances and therapeutic perspective” (Eur J Med Chem, 2022)

Experiments:
Adenosine receptor A3 [1] = target: T1, Adenosine receptor A3 (Homo sapiens, UniProt P0DMS8); assay: biochemical
T1 sequence (P0DMS8 whole entry): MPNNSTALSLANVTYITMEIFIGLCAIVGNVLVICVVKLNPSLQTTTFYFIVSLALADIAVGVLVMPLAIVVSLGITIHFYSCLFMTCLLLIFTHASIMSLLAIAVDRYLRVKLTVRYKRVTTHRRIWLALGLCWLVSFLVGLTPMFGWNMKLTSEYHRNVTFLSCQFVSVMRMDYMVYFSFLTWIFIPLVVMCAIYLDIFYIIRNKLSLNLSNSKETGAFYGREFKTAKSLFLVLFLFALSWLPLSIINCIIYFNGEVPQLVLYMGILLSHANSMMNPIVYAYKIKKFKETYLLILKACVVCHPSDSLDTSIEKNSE
Description: Displacement of [3H]NECA from human adenosine A3 receptor expressed in HeLa cells measured by scintillation counting assay

Adenosine receptor A3 [2] = target: T1, Adenosine receptor A3
Description: Antagonist activity at human adenosine A3 receptor expressed in CHO cells assessed as cAMP level measured by enzyme immunoassay

[3] = target: T2, Amine oxidase [flavin-containing] B (Homo sapiens, UniProt P27338)
T2 sequence (P27338 whole entry): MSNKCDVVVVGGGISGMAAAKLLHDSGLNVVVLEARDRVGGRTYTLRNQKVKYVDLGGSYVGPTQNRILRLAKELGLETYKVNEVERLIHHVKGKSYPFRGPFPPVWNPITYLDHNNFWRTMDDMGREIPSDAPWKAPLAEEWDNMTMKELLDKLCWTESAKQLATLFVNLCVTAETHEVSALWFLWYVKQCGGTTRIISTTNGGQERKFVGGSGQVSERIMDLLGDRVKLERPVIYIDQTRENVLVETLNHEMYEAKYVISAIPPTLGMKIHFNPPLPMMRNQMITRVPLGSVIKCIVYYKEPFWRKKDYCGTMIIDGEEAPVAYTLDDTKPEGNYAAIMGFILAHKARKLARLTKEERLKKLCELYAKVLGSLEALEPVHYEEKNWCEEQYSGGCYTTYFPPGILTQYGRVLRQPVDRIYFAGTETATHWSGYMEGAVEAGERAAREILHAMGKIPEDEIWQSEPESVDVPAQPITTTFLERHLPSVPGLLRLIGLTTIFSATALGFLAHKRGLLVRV
Description: Inhibition of MAO-B (unknown origin)

Adenosine receptor A2a [4] = target: T3, Adenosine receptor A2a (Homo sapiens, UniProt P29274)
Description: Binding affinity to human adenosine A2A receptor

in vivo [5] = conditions: male, Wistar, rat
Description: Half-life in male Wistar rat

Adenosine receptor A1 [6] = target: T4, Adenosine receptor A1 (Homo sapiens, UniProt P30542)
T4 sequence (P30542 whole entry): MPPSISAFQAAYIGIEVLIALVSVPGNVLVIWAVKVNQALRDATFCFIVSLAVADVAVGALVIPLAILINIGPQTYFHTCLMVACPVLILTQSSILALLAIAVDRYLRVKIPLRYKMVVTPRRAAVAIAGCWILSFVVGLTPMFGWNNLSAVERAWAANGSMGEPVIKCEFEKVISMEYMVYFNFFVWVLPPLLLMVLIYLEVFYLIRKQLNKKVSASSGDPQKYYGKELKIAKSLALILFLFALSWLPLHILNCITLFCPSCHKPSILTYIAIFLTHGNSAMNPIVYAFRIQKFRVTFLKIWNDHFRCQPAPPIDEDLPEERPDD
Description: Antagonist activity at human adenosine A1A receptor

Adenosine receptor A2b [7] = target: T5, Adenosine receptor A2b (Homo sapiens, UniProt P29275); assay: Antagonist activity at human adenosine A2B receptor expressed in HEK293 cells assessed as inhibition of cAMP production; format: functional, cell-based
T5 sequence (P29275 whole entry): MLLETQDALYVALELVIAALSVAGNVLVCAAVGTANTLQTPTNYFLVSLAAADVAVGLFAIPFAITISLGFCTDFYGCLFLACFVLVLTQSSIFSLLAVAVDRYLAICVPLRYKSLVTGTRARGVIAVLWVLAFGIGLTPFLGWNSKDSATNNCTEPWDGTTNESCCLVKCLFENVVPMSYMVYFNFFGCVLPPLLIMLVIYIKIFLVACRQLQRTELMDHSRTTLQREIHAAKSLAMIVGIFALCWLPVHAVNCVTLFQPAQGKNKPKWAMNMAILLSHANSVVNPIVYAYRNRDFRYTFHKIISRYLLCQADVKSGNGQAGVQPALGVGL

Adenosine receptor A2b [8] = target: T5, Adenosine receptor A2b
Description: Binding affinity to human adenosine A2B receptor

Adenosine receptor A2b [9] = target: T5, Adenosine receptor A2b; remark: listed apart in the source
Description: Antagonist activity at human adenosine A2B receptor expressed in mouse NIH/3T3 cells assessed as inhibition of NECA-induced IL-6 release

in vitro [10] = conditions: human, liver microsomes
in vitro [11] = conditions: human, Caco-2
Description: Apparent permeability in human Caco-2 cells

Adenosine receptor A1 [12] = target: T4, Adenosine receptor A1; assay: Displacement of [3H]CCPA from human adenosine […] receptor expressed in CHO cells measured by radioligand competition assay; format: cell-based
Adenosine receptor A2a [13] = target: T3, Adenosine receptor A2a; assay: Displacement of [3H]NECA from human adenosine A2A receptor expressed in CHO cells measured by radioligand competition assay; format: cell-based
Rattus norvegicus [14] = species on record: Rattus norvegicus; assay: animal or person; conditions: po
Description: Antiparkinson's activity in L-DOPA induced dyskinesia rat model assessed as reduction in contralateral rotations administered orally

Rattus norvegicus [15] = species on record: Rattus norvegicus; assay: animal or person; conditions: po, 4 h
Description: Reversal of haloperidol-induced catalepsy in rat administered orally and measured after 4 hrs

Adenosine receptor A2a [16] = target: T3, Adenosine receptor A2a; assay: biochemical
Description: Displacement of [3H]ZM-241385 from human adenosine A2A receptor expressed in HEK293 cells incubated for 60 mins and measured by scintillation counting assay

in vivo [17] = conditions: male, Wistar, rat, iv, 3 mg/kg
Description: Half-life in male Wistar rat at 3 mg/kg, iv

T3 sequence (P29274 whole entry): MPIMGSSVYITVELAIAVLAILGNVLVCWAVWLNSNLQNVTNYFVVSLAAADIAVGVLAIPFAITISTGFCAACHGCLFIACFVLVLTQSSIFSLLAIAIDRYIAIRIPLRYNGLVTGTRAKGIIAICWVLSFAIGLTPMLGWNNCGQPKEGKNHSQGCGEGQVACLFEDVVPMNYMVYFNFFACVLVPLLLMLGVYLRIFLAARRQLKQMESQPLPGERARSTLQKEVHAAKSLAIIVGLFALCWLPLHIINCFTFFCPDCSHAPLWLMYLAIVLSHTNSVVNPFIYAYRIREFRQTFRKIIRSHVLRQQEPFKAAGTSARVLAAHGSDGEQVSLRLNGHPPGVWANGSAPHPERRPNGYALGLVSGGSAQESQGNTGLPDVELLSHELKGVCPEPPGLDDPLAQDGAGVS

CCn1nnc([C@H]2O[C@@H](n3cnc4c(N)nc(NC(C)Cc5ccc(OC)cc5)nc43)[C@H](O)[C@@H]2O)n1 (some centres not stated)
Ki (Adenosine receptor A3 [1]): 13 nM | Ki (Adenosine receptor A3 [2]): 6 nM

Cn1c(=O)c2c(nc(/C=C/c3cccc(Br)c3)n2C)n(C)c1=O
IC50 [3]: 112 nM | Ki (Adenosine receptor A2a [4]): 28.4 nM

CCCn1c(Oc2ccc(F)c(F)c2)nc2nc(C3CCCC3)[nH]c2c1=O
half-life (in vivo [5]): 2 h | Ki (Adenosine receptor A1 [6]): 2 nM

CCCn1c(=O)c2[nH]c(-c3cnn(CC#Cc4cccc(OC(F)(F)F)c4)c3)nc2n(CCC)c1=O
Ki (Adenosine receptor A2b [7]): 8 nM | Ki (Adenosine receptor A2b [8]): 13 nM | IC50 (Adenosine receptor A2b [9]): 107 nM

Nc1cc(-c2ccco2)c2oc(-c3ccco3)nc2c1
half-life at 0.1 µM (in vitro [10]): > 0.683 h | Papp (in vitro [11]): 77 ×10⁻⁶ cm/s

O=c1oc2c(O)cccc2cc1-c1ccc(Br)cc1
Ki (Adenosine receptor A1 [12]): 2400 nM | Ki (Adenosine receptor A2a [13]): 12100 nM

COCCOc1ccc(N2CCN(CCn3c(=O)n(C)c4c3nc(N)n3nc(-c5nccs5)nc43)CC2)c(F)c1
ED50 (Rattus norvegicus [14]): 1.2 mg/kg | ED50 (Rattus norvegicus [15]): 4.49 mg/kg | Ki (Adenosine receptor A2a [16]): 0.4 nM | half-life (in vivo [17]): 1 h
